How the values were obtained:
[1] = test system: 4T1 cells; assay: Efficacy in 4T1 tumor metastasis (lung) model in BALB/C mice; type: in vivo; conditions: lung, day 27; i.p. daily for 8 days; S1, S2 10 μmol/kg, doxorubicin hydrochloride 3 μmol/kg
Excerpt: Test purpose: to investigate the anti-tumor efficacy of S1 and S2 in a tumor metastasis treatment model from BALB/C mice.
Test drug: S1 and S2 injections, and doxorubicin hydrochloride injection, diluted to corresponding concentrations with physiological saline when testing.
1. Animal: BALB/C mice of 6-8 weeks old, all female.
1) 4T1 cells were purchased from American type culture collection (ATCC) and identified according the specification provided by ATCC. Cells were cultivated in DMEM culture medium containing 10% fetal bovine serum at 37° C. and 5% CO2. The cells were passaged for every three days and cells within the 15th passage were used.
2) Production of tumor metastasis. 10^6 […] were subcutaneously injected to the back of the BALB/C mice. Mice were randomly grouped after the tumor grew to about 1.5 cm. The subcutaneous tumor was removed by surgery and drug treatment began. Mice were killed after anesthesia on day 27. The whole lung was taken out and put into Bouin's solution for staining. The number of the tumor metastasized to lung was counted with anatomical microscope.
3) Course of treatment. According to the clinical application of S1 and S2, drugs were intraperitoneally injected. A dose of 10 μmol/kg (<1/10 MTD) was used for the S1 treatment group, 10 μmol/kg (<1/10 MTD) for the S2 treatment group, and 3 μmol/kg (>1/2 MTD) for doxorubicin hydrochloride. The control group was administered with physiological saline. The drugs were administered daily for 8 days.

[2] = test system: A549; assay: Efficacy at different doses in human non-small cell lung cancer A549 model; type: in vivo; conditions: FIG. 6
Excerpt: In some examples and many other tumor treatment modes of the present invention, efficacies of Succinyl-AANL-DOX (SEQ ID NO: 2) and EMC-AANL-DOX (SEQ ID NO: 2) were also studied and compared according to the same method as described above. […] Thus, EMC-AANL-DOX (SEQ ID NO: 2) could satisfy our requirements on clinical development.

## COc1cccc2c1C(=O)c1c(O)c3c(c(O)c1C2=O)CC(O)(C(=O)CO)CC3OC1CC(NC(=O)C(CC(C)C)NC(=O)C(CC(N)=O)NC(=O)C(C)NC(=O)C(C)NC(=O)CCCCCN2C(=O)C=CC2=O)C(O)C(C)O1 (stereo not drawn) [Example S1, EMC-AANL-Doxorubicin]
[1]
  Inhibitory rate on metastasis: 91.6%
  Number of metastasized tumor: 12 ± 4
[2]
  Effect on tumor in A549 model (in words): could completely kill the tumor, with no recurrence of tumor in the later stage of the treatment
